According to article PMC8344021, “Discovery of Small Molecule Bak Activator for Lung Cancer Therapy” (Theranostics, 2021):

Key:
DMS114 xenografts = experiment: SCLC DMS114 xenografts, tumor growth; type: in vivo, Nu/Nu nude mice; conditions: 15mg/kg/d i.p., 2-4 weeks
Experimental: Six-week-old female Nu/Nu nude mice were purchased from Envigo (Indianapolis, IN) and housed under pathogen-free conditions in microisolator cages. The animal propagation protocol was approved by the Emory Institutional Animal Care and Use Committee (IACUC) and the Emory Animal Ethics Committee. 3×10^6 lung cancer cells were injected into subcutaneous tissue in the flank region of nude mice. The tumors were allowed to grow to an average volume of 150~200 mm^3 prior to initiation of therapy as previously described, [29]. Patient-derived xenografts (PDXs, TKO-002 and TKO-005) were established as part of an IRB-approved phase II co-clinical trial of arsenic trioxide in patients with relapsed SCLC who had failed standard platinum-based chemotherapy. Tumor samples were obtained by image-guided biopsy and were directly implanted into Nu/Nu nude mice without intervening propagation in plastic culture plates. Direct serial propagation of growing tumor occurred for up to 5 generations. The animal propagation protocol was approved by the Emory IACUC and the Emory Animal Ethics Committee. Mice with SCLC and NSCLC xenografts or PDXs were treated with BKA-073 intraperitoneally (i.p.) or venetoclax orally as indicated. During treatment, tumor volume (V) was measured by caliper measurements once every two days as described previously. Mice were euthanized by CO2 inhalation at the end of treatment. […]

[1] = Toxicity in mice bearing A549 xenografts; type: in vivo, Nu/Nu nude mice; conditions: 28 days
Experimental: To assess whether BKA-073 induced suppression of tumor growth occurs through activation of Bak and apoptosis in vivo, representative samples from harvested tumor tissues were analyzed by cross-linking with BMH for Bak oligomerization or by immunohistochemistry (IHC) for active caspase 3 as described, [29], [47]. […] There were no decreases in white cells (WBC), red blood cells (RBC) and platelets (PLT) in blood.
Figure 5 Toxicity of BKA-073 in vivo. (A-C) Body weight (A), blood analysis (B) and H&E histology of various organs (C) from mice bearing A549 xenografts after treatment with increasing doses (0, 5, 10, 15mg/kg/d) of BKA-073 for 28 days. […]
Whole blood (250µL) was collected in EDTA-coated tubes via cardiac puncture of anesthetized
mice for hematology studies. […]

human Bak protein (WT) = molecular target: T1, human Bak protein (WT) (Homo sapiens, UniProt Q16611); experiment: Isothermal titration calorimetry (ITC); conditions: 25 °C, one-site binding
T1 construct: His6; made in house; host or cells: Escherichia coli BL21 DE3
Experimental: The binding affinity of BKA-073 with Bak protein was examined by isothermal titration calorimetry (ITC) assay as described, [28]. ITC assay was carried out in the auto-iTC200 instrument (MicroCal, GE) at 25 °C. Purified recombinant human or mouse Bak protein was loaded into a 96 Deepwell PP plate. BKA-073 compound was then titrated stepwise into the protein for a total of 16 injections. Reference power and initial delay were set as 5 µCal/sec and 60s, respectively. A string speed of 750 rpm was used for the ITC measurements. The binding constant (Kd) value was determined by fitting the titration curve to a one-site binding mode, using the Origin software provided by the manufacturer.
To confirm the binding of BKA-073 with Bak, we first conducted a competitive fluorescence polarization (FP) assay using purified human Bak protein, fluorescent Bak BH3 domain peptide, and BKA-073 as described, [37]-[40]. […] There are multiple amino acid differences in the BH3 domains between Bak and other Bcl2 family members, which helps to explain why BKA-073 only binds to Bak but not to other Bcl2 family members (i.e. Bax, Bcl2, Bcl-XL, Bcl-w and Mcl-1). In addition to the FP assay, isothermal titration calorimetry (ITC) was also employed to measure Bak/BKA-073 binding. […] In addition to human Bak/BKA-073 binding, we measured mouse Bak/BKA-073 binding using ITC.

T1 sequence (Q16611 1-186 limits assumed): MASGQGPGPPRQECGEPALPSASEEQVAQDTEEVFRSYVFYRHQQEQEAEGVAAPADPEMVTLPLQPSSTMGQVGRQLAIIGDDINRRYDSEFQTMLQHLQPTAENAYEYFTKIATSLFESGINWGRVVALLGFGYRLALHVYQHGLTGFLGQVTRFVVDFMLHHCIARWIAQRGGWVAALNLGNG

COc1ccc2nc3ccccc3c(NCCNCC(C)O)c2c1 (stereo not shown) [BKA-073]
tumor growth (DMS114 xenografts): potently suppressed tumor growth
body weight ([1]; 5, 10, 15mg/kg/d i.p.): No weight loss
kidney (BUN) and liver (ALT and AST) function ([1]; 5, 10, 15mg/kg/d i.p.): in the normal range
white cells (WBC), red blood cells (RBC) and platelets (PLT) in blood ([1]; 5, 10, 15mg/kg/d i.p.): no decreases
tolerability ([1]; 5-15mg/kg/d i.p.): well tolerated without significant toxicity
histopathology of normal tissues (heart, liver, lung, brain, spleen, kidney, intestine) ([1]; 5~15mg/kg/d i.p.): no evidence of normal tissue toxicities
Kd (human Bak protein (WT)): 0.0886 ± 0.00573 µM
